“Also recorded” adds a separate entry of the source.
Assays:
mTOR = molecular target: T1, mTOR (Homo sapiens, UniProt P42345+P62942); assay: Western blot of S6 phosphorylation in RPMI 8226 cells; assay type: cell-based; conditions: RPMI 8226, 24 hours; rapamycin 2 nM, compound 3 and B1 0.2 μM
T1 construct: endogenous in cells; host or cells: RPMI 8226 (ATCC)
Protocol: Human multiple myeloma RPMI 8226 cells were purchased from American Type Culture Collection (ATCC; Manassas, Va.) and cultured according to ATCC specifications. […] The content of live cells was determined by excluding the Trypan Blue-stained cells. The cells were counted with TC20 Automated Cell Counter (Bio-Rad Laboratories, Hercules, Calif.) and EC50 was calculated with Origin Pro 2017 (OriginLab Corporation, Northampton, Mass.). When indicated, the cells were harvested, washed twice in PBS, resuspended in dilution buffer and stored in −80° C. To prepare crude lysates the thawed preparations were vortexed with glass beads and centrifuged for 5 min 5,000×g (4° C.). The supernate was centrifuged for 20 min 14,000×g. The resulting supernate was used as “crude lysate.” SDS-PAGE was carried in 12% acrylamide, Tris-glycine gels from Invitrogen. Chameleon Duo (Li-Cor) and Rainbow RPN800E (GE Healthcare) molecular weight standards were separated on each gel alongside lysates. The proteins were transferred to nitrocellulose membrane in a semi-dry system. The membranes were probed with specific primary antibodies from Life Technologies (S6, PS6) and Li-Cor (COX IV), and then with secondary antibodies from Li-Cor. In each experiment visualization of S6, PS6 and COX IV was performed on the same membrane with Odyssey Infrared Imaging System (Li-Cor). […]

[1] = molecular target: T2, 20 S human housekeeping proteasome (Homo sapiens, UniProt P25787+P25789); assay: ChT-L peptidase activity of 20 S proteasome activated with Rpt5 peptide; assay type: biochemical; conditions: tRpt5 added last (compound 3 before tRpt5), n=3
T2 construct: purified from erythrocytes; purchased Enzo Life Sciences, Inc. (Farmingdale, N.Y.); host or cells: human erythrocytes

[2] = Pilot toxicity study in mice
Protocol: Six injections were performed on Mondays, Wednesdays, and Fridays for two weeks, and the weight and overall condition of the mice were monitored.

[3] = 10 and 30 mg/kg intravenously, six injections in two weeks

COc1cc(CCCOC(=O)[C@@H]2CCCCN2C(=O)OCc2ccccc2)cc(OC)c1OC [Compound 3, 1-benzyl 2-(3-(3,4,5-trimethoxyphenyl)propyl) (S)-piperidine-1,2-dicarboxylate]
activity of mTOR (phosphorylation of S6) (mTOR): neither B1 nor compound 3 affected the activity of mTOR; also recorded: did not inhibit the S6 phosphorylation
remaining ChT-L activity [1]: 56%
animals' behavior [2, 3]: No differences in the animals' behavior were noted
body weight versus control mice [2, 3]: did not differ significantly
toxicity for mice ([2]; highest tested dose 30 mg/kg): non-toxic for mice up to a highest tested dose of 30 mg/kg
